Source: US4020111A, “Propynyloxy alkyl arene insecticides” (priority 1975, dated 1977)
Where “and” joins values, the source holds several entries; their conditions need not be identical. Identical values can stand only once.

How the values were obtained:
[1] = test system: polyvalent resistant (CH strain) houseflies; experiment: whole plant or invertebrate; type: in vivo, housefly (CH strain); settings: for percent kill after 24 hours: CH strain
Procedure: The effect of O-(2-propynyl) oximes with Dimetilan and with GS 13798 was obtained from tests on polyvalent resistant (CH strain) houseflies that had been chilled and to the dorsal region of which was applied an acetone solution of synergist and insecticide at a ratio of two to one. Duplicate tests were performed using 10 four to five-day old female houseflies per test. After dosage, the flies were put in a plastic petri dish with cotton soaked in a sugar-water solution. These doses of insecticide used without synergist caused 10-40% mortality.
(§1) In Table IX, and in the tables following it, the doses of topically applied insecticides and of synergists unless otherwise noted are expressed as micrograms per fly (μg/fly).
The effect of compounds II-C, II-D and II-E with Dimetilan and GS 13798 was determined, following the procedure of Example 5, from tests on polyvalent resistant (CH strain) houseflies. These doses of insecticide used without synergist caused 10-40% mortality.
(§2) The synergistic effect with GS 13005 of compounds I-A, I-B, I-D, I-E, I-F, I-G and I-I was determined from topical application tests to IN/WHO strain, Rutgers A strain and polyvalent CH strain houseflies using the procedures of Example 5. The percent kills of the IN/WHO strain flies after 24 hours are shown in Table XXVIII; of the Rutgers A strain, in Table XXIX; and of the polyvalent CH strain, in Table XXX. The doses of insecticide alone to the CH strain files caused 10-40% mortality.
(§3) The synergistic effect with Diazinon and GS 13005 of various of the benzyl 2-propynyl ethers identified in Tables II and IIa was determined by topical application tests on IN/WHO strain, and Rutgers A strain and polyvalent, resistant, CH strain houseflies using the procedures of Example 5. The percent kills after 24 hours of IN/WHO strain flies are shown in Table XXXI; of Rutgers A strain flies, in Table XXXII; and of CH strain flies, in Table XXXIII. The doses of insecticide alone to the CH strain flies caused 10-40% mortality.
The synergistic effect with pyrethrum of various synergist compounds was determined by topical application tests on polyvalent, resistant CH strain houseflies following the procedure of Example 5. Application of the insecticide alone caused 10-40% mortality.

[2] = test system: IN/WHO strain house flies; experiment: topical application test, percent kill after 24 hours, IN/WHO strain; type: in vivo, house fly (susceptible IN/WHO strain)
Summary of the method: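 Susceptible female IN/WHO house flies, 3–5 days old, CO2-anesthetized, received synergist plus insecticide in acetone (1.0 μL) on the thorax; doses in μg/fly. Flies held 10 per dish, 3–5 dishes/treatment, with skim milk; mortality (percent kill) read at 24 h.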

[3] = test system: Rutgers A strain house flies; experiment: topical application test, percent kill after 24 hours, Rutgers A strain; type: in vivo, house fly (resistant Rutgers A strain)
Procedure: as §1
The synergistic effect of O-(2-propynyl) oximes with mobam was determined from topical application tests on susceptible, female, IN/WHO strain house flies and from tests on resistant, female, Rutgers A strain house flies. The synergist and insecticide were dissolved in ACS Grade acetone in such quantities that a 1.0μ liter volume applied to the thorax of 3-to-5 day old CO2 -anesthetized female adult house flies contained the desired dosage. After being treated, the flies were confined, 10 to a plaster petri dish, with 3-5 dishes/treatment, and held for 24-hr. observation of mortality. Reconstituted skim milk on cotton dental wicks was provided during the holding period. The percent kills after 24 hours are shown in Table X for the IN/WHO strain and Table XI for the Rutgers A strain.
The synergistic effect of benzyl 2-propynyl ethers with mobam was determined from topical application tests on IN/WHO and Rutgers A strain houseflies, following the procedure of Example 5. The percent kills after 24 hours are shown in Table XIV for the IN/WHO strain and in Table XV for the Rutgers A strain.
The synergistic effect with Diazinon of compounds I-B, I-D, I-F, I-G, I-H and I-I, identified in Tables I and Ia, was determined from topical application tests on IN/WHO strain houseflies and on Rutgers A strain houseflies by the procedure of Example 5. The percent kills after 24 hours are shown in Table XXV for the IN/WHO strain and Table XXVI for the Rutgers A strain.
as §2, §3
The synergistic effect on IN/WHO strain flies and Rutgers A strain flies of compound IV-C with GS 13005 and with Diazinon was determined by the topical application procedure of Example 5. The percent kills of IN/WHO strain flies after 24 hours are shown in Tables XXXVI and XXXVII; the percent kills of Rutgers A strain flies are shown in Tables XXXVIII and XXXIX.

[4] = test system: German male cockroaches (Blatella Germanicus); experiment: topical application to thorax, 24 hour mortality of German male cockroaches; type: in vivo, German cockroach (Blatella Germanicus)
Procedure: The synergistic effect with mobam of synergist compounds I-B, II-H, II-K and IV-C is further illustrated by the 24 hour mortality data of German male cockroaches (Blatella Germanicus) shown in Table XXXX. The synergists and insecticide were diluted in acetone and applied in small droplets to the thorax of the insect. These doses of synergist alone gave zero percent insect mortality.
The synergistic effect with GS 13005 of compounds I-B, II-H, II-K, II-P, II-Q, II-R and IV-C is illustrated by the 24 hour mortality of German male cockroaches shown in Table XXXXI. These doses of synergist alone caused zero percent insect mortality.

[5] = test system: mice; experiment: synergism of acute toxicity of Dimetilan, GS 13005, Secobarbital and Methadone (intraperitoneal); type: in vivo, Swiss albino white male mice; settings: for number of mice dead: 48 hours, of eight mice
Summary of the method: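 Male Swiss albino mice (5–6 weeks, 23–27 g), eight per dose; synergist in corn oil given i.p. 1 h before i.p. insecticide or drug (drugs in distilled water). Lethality recorded over at least 6 h; controls received corn oil plus agent alone.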

[6] = test system: mice; experiment: extension of Secobarbital sleeping time by synergists; type: in vivo, Swiss albino white male mice; settings: Secobarbital 37 mg/K; for Relative Sleeping Time: treated/control
Summary of the method: (§4)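 Swiss albino male mice (~38 days, 25-30 g) given synergist at 74.0 or 110.0 mg/kg in corn oil 1 h before Secobarbital 37.0 mg/kg or Noludar 110.0 mg/kg in water. Sleeping time measured from drug dosing to righting-reflex recovery; relative sleeping time = treated ÷ drug-only control.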

[7] = test system: mice; experiment: extension of Noludar sleeping time by synergists; type: in vivo, Swiss albino white male mice; settings: Noludar 110 mg/K, synergist 110 mg/K; for Relative Sleeping Time: treated/control
Summary of the method: as §4

[8] = test system: mice; experiment: acute toxicity of Dimetilan alone and of synergist alone (intraperitoneal); type: in vivo, Swiss albino white male mice; settings: synergist alone 1000 mg/kg ip, 72 hours, of eight mice
Procedure: To determine the acute toxicity of dimetilan alone, eight dosage levels of Dimetilan, ranging from 4 to 32 mg per kg wer applied to eight, Swiss, albino, white, male mice per dosage level. The mice weighed approximately 23 to 27 grams and were five to size weeks old. The Dimetilan was administered intraperitoneally in 0.1 ml of corn oil one hour after the administration of the same dose of corn oil alone.
To determine the acute toxicity of the synergist alone, various synergists were administered intraperitoneally at a dose of 1000 mg/kg to each of a group of eight mice. The number of animals dead at the end of 72 hours is reported in the left hand column of Table XXXXVI.

[9] = test system: Wilson strain house flies; type: in vivo, house fly (susceptible Wilson strain); settings: for Contact Synergistic Ratio, Carbaryl (LC50 insecticide alone / LC50 with synergist): in vivo; for Contact Synergistic Ratio, Pyrolan (LC50 insecticide alone / LC50 with synergist): synergist to insecticide 5:1 by weight, 24 h
Summary of the method: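 Flies held at room temperature in glass jars coated with acetone-deposited insecticide film, alone or with synergist at 5:1 synergist:insecticide by weight; 10% sugar supplied.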

[10] = test system: houseflies; experiment: percent kill with Diazinon, Table XXVII (strain not given); type: in vivo, housefly; settings: Diazinon 5 + synergist 10 μg/fly, 1440 min
[11] = synergist alone at doses of Table XXXXI
[12] = Dimetilan 8 mg/kg + synergist 240 mg/kg ip
[13] = GS 13005 71 mg/kg + synergist 213 mg/kg
[14] = Methadone 32 mg/kg + synergist 215 mg/kg
[15] = Secobarbital 90 mg/kg + synergist 215 mg/kg

Structure (SMILES) | insect mortality, synergist alone [4, 11] | Mean Sleeping Time ([6]; synergist 110 mg/K) | Relative Sleeping Time ([6]; synergist 110 mg/K) | Mean Sleeping Time [7] | Relative Sleeping Time [7] | number of mice dead [8] | number of mice dead [5, 12] | mice lethality (number dead) [5, 13] | mice lethality (number dead) [5, 14] | mice lethality (number dead) [5, 15] | Contact Synergistic Ratio, Carbaryl (LC50 insecticide alone / LC50 with synergist) [9] | Contact Synergistic Ratio, Pyrolan (LC50 insecticide alone / LC50 with synergist) [9] | Mean Sleeping Time ([6]; synergist 74 mg/K) | Relative Sleeping Time ([6]; synergist 74 mg/K) | also measured
COc1nn(CSP(=S)(OC)OC)c(=O)s1 [GS 13005, S-((2-methoxy-5-oxo-Δ^2-1,3,4-thiadiazolin-4-yl)methyl) O,O-dimethyl phosphorodithioate, reference compound] | – | – | – | – | – | – | – | – | – | – | – | – | – | – | mortality at 1 µg/fly ([1]; Musca domestica, topical, 24 h, read-out: mortality, insecticide alone): 10 to 40%; percent kill after 24 hours ([2]; GS 13005 alone 0.05 μg/fly): 0%; percent kill after 24 hours ([2]; GS 13005 alone 0.10 μg/fly, 1440 min): 19% and 16% and 12%; percent kill after 24 hours ([3]; GS 13005 alone 1.0 μg/fly, 1440 min): 2%; 24 hour mortality ([4]; GS 13005 alone, dose 0.08, 1440 min): 15% and 23% and 10%; mice lethality (number dead) ([5]; control: GS 13005 71 mg/kg in 0.1 ml corn oil): 5
CNC(=O)Oc1cccc2sccc12 [Mobam, 4-benzo(b) thienyl-N-methylcarbamate, reference compound] | – | – | – | – | – | – | – | – | – | – | – | – | – | – | percent kill after 24 hours ([2]; Mobam alone 0.05 μg/fly): 0%; percent kill after 24 hours ([2]; Mobam alone 0.10 μg/fly): zero; percent kill after 24 hours ([2]; Mobam alone 0.10 μg/fly, 1440 min): 0%; percent mortality 24 hours ([2]; Mobam alone 0.13 μg/fly): 0%; percent kill after 24 hours ([2]; Mobam alone 0.20 μg/fly, 1440 min): 2%; percent mortality 24 hours ([2]; Mobam alone 0.50 μg/fly, 1440 min): 83%; percent mortality 24 hours ([2]; Mobam alone 1.0 μg/fly, 1440 min): 73% and 93%; change in lethality on doubling dose of mobam alone ([2]; mobam alone 0.05 to 0.10 mg/fly (so in the source)): no increase in lethality; percent kill after 24 hours ([3]; Mobam alone 0.15 μg/fly): 0%; percent kill after 24 hours ([3]; Mobam alone 0.30 μg/fly): 0%; percent kill after 24 hours ([3]; Mobam alone 0.40 μg/fly): 7%; percent kill after 24 hours ([3]; Mobam alone 0.60 μg/fly): 4%; 24 hour mortality ([4]; Mobam alone, dose 0.12): 10%; 24 hour mortality ([4]; Mobam alone, dose 0.16): 30%
C#CCOCc1ccccc1[N+](=O)[O-] [II-P, 2-nitrobenzyl 2-propynyl ether] | zero | 46 min | 1.0 | 44 min | 1.5 | 2 | 0 | 6 | 0 | 0 | – | – | – | – | –
C#CCOCc1c(Cl)cccc1Cl [II-H] | zero | 51 min | 2.1 | 68 min | 2.2 | 0 | 6 | 7 | 4 | 0 | 300 | 40 | 44 min | 1.4 | insect mortality, synergist alone ([4]; synergist alone at doses of Table XXXX): zero; number of mice dead ([5]; Dimetilan 8 mg/kg + synergist 80 mg/kg ip): 0
C#CCON=Cc1ccc(OC)c(OC)c1 [I-A] | – | – | – | – | – | – | – | – | – | – | 200 | 30 | – | – | percent kill after 24 hours ([1]; Dimetilan 2 + synergist 4 μg/fly): 100%; percent kill after 24 hours ([1]; GS 13005 1 + synergist 2 μg/fly): 45%; percent kill after 24 hours ([1]; GS 13798 1 + synergist 2 μg/fly): 65%; percent kill after 24 hours ([1]; Pyrethrum 2 + synergist 4 μg/fly): 15%; percent kill [10]: 45%
C#CCOCc1ccc([N+](=O)[O-])cc1 [II-Q, 4-nitrobenzyl 2-propynyl ether] | zero | 73 min | 1.6 | 41 min | 2.1 | 7 | 1 | 6 | – | – | – | – | 30 min | 1.1 | –
